Test results from US20260347403A1, “FUNGICIDAL COMPOUND” (priority 2022, published 2026).
Numbered stars: 1 amine (or outer) side, 2 acyl side, 3 side chain; on linkers, the order of the positions; unused ones are H or OH. Bridge positions count the residues as written; N and C are the ends. Square brackets hold non-standard residues; d marks the D form. Peptide text beside a SMILES is read from it. * marks the point of attachment. Tridecanoyl(12-Me) = CC(C)CCCCCCCCCCC(=O)*; X1 = NC(=O)CC(O)C(N[*:1])C(=O)[*:2]; NMeF = CN[CH](Cc1ccccc1)C(=O)O; NMeN = CN[CH](CC(N)=O)C(=O)O

Assays:
Fusarium culmorum = assay: Liquid culture 96-well mixture assay with malonomicin, Fusarium culmorum, 72 hrs; type: cell-based; details: read-out: control of fungal growth (% reduction)
Protocol: (§1) A stock solution for compound of Formula I(a) was produced in DMSO (max. 10 mg/ml). Malonomicin was produced according to Law et al, 2018 (Nature Catalys is |VOL 1|DECEMBER 2018|977-984). A stock solution of malonomicin was produced in water plus 0.025% Tween® 20.
(§2) Assays to test efficacy of mixtures of the lipopeptide compound of Formula I(a) in combination with malonomicin on the control of fungal pathogens in a liquid culture assay were designed for a 96well plate as outlined in table 1:
(§3) The 96 well plate design allows to compare disease control of the mixture with disease control of the respective single compound at the same rate.
(§4) A master plate with 10× concentrated solution of the compound stock solutions diluted in water plus 0.025% Tween® 20 was prepared. The concentration of DMSO (from the stock of compound of Formula (a)) and Tween® 20 was kept constant in all cells of the master plate. 10 μl was transferred from the master plate to a 96well test plate. The nutrient broth containing the fungal spores/mycelia fragments was then added to the test plate to give an end concentration of 1× for the tested compounds (as outlined in Table 8). The test plates were incubated in the dark at 24 °C and 96% rh. The inhibition of fungal growth was determined photometrically after ca 3 days, and percent fungal growth reduction relative to the untreated check was calculated.
Fusarium culmorum (EPPO Code: FUSACU)
(§5) Conidia of the fungus from cryogenic storage were directly mixed into nutrient broth (PDB: potato dextrose broth).

Botrytis cinerea = assay: Liquid culture 96-well mixture assay with malonomicin, Botrytis cinerea, 72 hrs; type: cell-based; details: line H malonomicin alone, concentrations in Table 8
Protocol: as §1, §2, §3, §4
Botrytis cinerea (EPPO Code: BOTRCI)
Conidia of the fungus from cryogenic storage were directly mixed into nutrient broth (Vogel's minimal media).

Puccinia recondita = assay: Leaf disc mixture assay with malonomicin, Puccinia recondita, preventive spray timing, 8 dpi; type: in vivo, Puccinia recondita on wheat (cultivar Kanzler); details: compound of Formula I(a) lines 1-A to 2-D = 200, 100, 50, 25, 12.5, 6.25, 3.13, 0 ppm
Protocol: A stock solution for the lipopeptide compound of Formula I(a) was produced in DMSO (max. 10 mg/ml). Malonomicin was produced according to Law et al, 2018 (Nature Catalys is |VOL 1|DECEMBER 2018|977-984). A stock solution of malonomicin was produced in water plus 0.025% Tween®20.
Assays to test efficacy of mixtures of compound of Formula I(a) in combination with malonomicin on the control of fungal pathogens in a leaf disc assay were designed for two 24well plates.
Table 22 and Table 23. Outline of 24well testplate (1) and testplate (2) including concentration of compounds sprayed per well. The upper number in the cell indicates compound of Formula I(a) concentration (ppm), the lower number malonomicin concentration (ppm). Column (1) holds a dilution series of compound of Formula I(a), row (2-D) hold a dilution series of malonomicin. Well 2-D-(1) represents an untreated check. This design was applied for tests including Puccinia recondita (EPPO code: PUCCRE) with preventive and curative spray timing.
A first set of master plates with 1× concentrated spray solution of the lipopeptide compound of Formula I(a) stock diluted in water with concentrations according to table 22, table 23, table 25 or table 26, respectively, was prepared. Each well contained 2% DMSO and 0.025% Tween20. Accordingly, a second set of master plates with 1× concentrated malonomicin stock diluted in water was prepared. Each well of the second set contained 0.025% Tween20. Leaf segments placed on agar in 24well plates were sprayed with 8 μl of solution from the master plate containing the lipopeptide compound of Formula I(a) and the leaf segments were let to dry, followed 2 hours later by 8 μl of solution from the master plate containing malonomicin. After second sprays had dried, leaf segments were infected with fungal spores to obtain a preventive application timing. Alternatively, leaf segments infected one day before spray of the compounds were used, resulting in a curative spray timing. In addition, several plates were produced where leaf segments were sprayed 2× in absence of test compound (with only DMSO and Tween20), representing the untreated check samples. For each leaf segment percent leaf coverage of disease symptoms was assessed. Percent leaf coverage reduction relative to the untreated check was calculated. Efficacy of the mixtures was tested in duplicate and on different fungal species. Reported efficacy values are the average of two replicate results.
Puccinia recondita (EPPO Code: PUCCRE) with Preventive Spray Timing.
Wheat (cultivar Kanzler) leaf segments are placed on agar in multiwell plates (24-well format) and sprayed with test solutions (8 ul per well). After drying, the leaf disks are inoculated with a spore suspension of the fungus. After appropriate incubation the activity of a compound is assessed 8 dpi (days after inoculation) as preventive fungicidal activity.

Zymoseptoria tritici = assay: Liquid culture 96-well mixture assay with malonomicin, Zymoseptoria tritici, 72 hrs; type: cell-based; details: read-out: control of fungal growth (% reduction)
Protocol: as §1, §2, §3, §4
Zymoseptoria tritici (EPPO Code: SEPTTR)
as §5

Cercospora arachidicola = assay: Liquid culture 96-well mixture assay with malonomicin, Cercospora arachidicola, 5-6 days; type: cell-based; details: line H malonomicin alone, concentrations in Table 8
Protocol: as §1, §2, §3
as §4, with “The inhibition of fungal growth was determined photometrically after ca 3 days, and percent fungal growth reduction relative to the untreated check was calculated.” left out
Cercospora arachidicola (EPPO Code: MYCOAR)
as §5

[1] = plate column (2), highest malonomicin concentration, lines A-G with compound of Formula I(a) dilution series
[2] = plate column (3) of malonomicin dilution series, lines A-G with compound of Formula I(a)
[3] = plate column (4) of malonomicin dilution series, lines A-G with compound of Formula I(a)
[4] = plate column (5) of malonomicin dilution series, lines A-G with compound of Formula I(a)
[5] = plate column (6) of malonomicin dilution series, lines A-G with compound of Formula I(a)
[6] = plate column (7) of malonomicin dilution series, lines A-G with compound of Formula I(a)
[7] = plate column (8) of malonomicin dilution series, lines A-G with compound of Formula I(a)
[8] = plate column (9) of malonomicin dilution series, lines A-G with compound of Formula I(a)
[9] = plate column (10) of malonomicin dilution series, lines A-G with compound of Formula I(a)
[10] = plate column (11), lowest malonomicin concentration, lines A-G with compound of Formula I(a)

Work on NC[C@@H]1NC(=O)C(C(=O)CC(NC(=O)[C@@H](N)CO)(C(=O)O)C(=O)O)=C1O [malonomicin, {[(2S)-2-amino-3-hydroxypropanoyl]amino}{2-[(5S)-5-(aminomethyl)-4-hydroxy-2-oxo-2,5-dihydro-1H-pyrrol-3-yl]-2-oxoethyl}malonic acid] yielded an inhibition of growth at 1 ppm (Fusarium culmorum; malonomicin 1.00 ppm) of 0%, an inhibition of growth at 3 ppm (Fusarium culmorum; malonomicin 3.00 ppm) of 0% and an inhibition of growth at 7.81 ppm (Fusarium culmorum; malonomicin 7.81 ppm) of 0%. For the same compound, the inhibition of growth at 15.63 ppm (Fusarium culmorum; malonomicin 15.63 ppm) was 0%, the inhibition of growth at 31.25 ppm (Fusarium culmorum; malonomicin 31.25 ppm) was 0% and the inhibition of growth at 62.5 ppm (Fusarium culmorum; malonomicin 62.5 ppm) was 0%. The inhibition of growth at 125 ppm (Fusarium culmorum; malonomicin 125 ppm) was 20%, the inhibition of growth at 250 ppm (Fusarium culmorum; malonomicin 250 ppm) was 20% and the inhibition of growth at 500 ppm (Fusarium culmorum; malonomicin 500 ppm) was 20%. For the same compound, the inhibition of growth at 1000 ppm (Fusarium culmorum; malonomicin 1000 ppm) was 20%, the “control of fungal growth (% reduction of growth in the test well as compared to untreated check)” value (Botrytis cinerea; [1]) was 70% and the “control of fungal growth (% reduction of growth in the test well as compared to untreated check)” value (Botrytis cinerea; [2]) was 70%. The “control of fungal growth (% reduction of growth in the test well as compared to untreated check)” value (Botrytis cinerea; [3]) was 70%, the “control of fungal growth (% reduction of growth in the test well as compared to untreated check)” value (Botrytis cinerea; [4]) was 70% and the “control of fungal growth (% reduction of growth in the test well as compared to untreated check)” value (Botrytis cinerea; [5]) was 70%. The “control of fungal growth (% reduction of growth in the test well as compared to untreated check)” value (Botrytis cinerea; [6]) was 20%, the “control of fungal growth (% reduction of growth in the test well as compared to untreated check)” value (Botrytis cinerea; [7]) was 0% and the “control of fungal growth (% reduction of growth in the test well as compared to untreated check)” value (Botrytis cinerea; [8]) was 0%. The “control of fungal growth (% reduction of growth in the test well as compared to untreated check)” value (Botrytis cinerea; [9]) was 0%, the “control of fungal growth (% reduction of growth in the test well as compared to untreated check)” value (Botrytis cinerea; [10]) was 0% and the “control of fungal growth (% reduction of symtoms on the leaf segment as compared to untreated check)” value (Puccinia recondita; column (2): malonomicin 200 ppm) was 100%. For the same compound, the “control of fungal growth (% reduction of symtoms on the leaf segment as compared to untreated check)” value (Puccinia recondita; column (3): malonomicin 20 ppm) was 100%, the “control of fungal growth (% reduction of symtoms on the leaf segment as compared to untreated check)” value (Puccinia recondita; column (4): malonomicin 6.67 ppm) was 80% and the “control of fungal growth (% reduction of symtoms on the leaf segment as compared to untreated check)” value (Puccinia recondita; column (5): malonomicin 2.22 ppm) was 10%. The “control of fungal growth (% reduction of symtoms on the leaf segment as compared to untreated check)” value (Puccinia recondita; column (6): malonomicin 0.74 ppm) was 0%, the inhibition of growth at 1 ppm (Zymoseptoria tritici; malonomicin 1.00 ppm) was 0% and the inhibition of growth at 3 ppm (Zymoseptoria tritici; malonomicin 3.00 ppm) was 0%. For the same compound, the inhibition of growth at 7.81 ppm (Zymoseptoria tritici; malonomicin 7.81 ppm) was 0%, the inhibition of growth at 15.63 ppm (Zymoseptoria tritici; malonomicin 15.63 ppm) was 20% and the inhibition of growth at 31.25 ppm (Zymoseptoria tritici; malonomicin 31.25 ppm) was 20%. It also gave an inhibition of growth at 62.5 ppm (Zymoseptoria tritici; malonomicin 62.5 ppm) of 50%, an inhibition of growth at 125 ppm (Zymoseptoria tritici; malonomicin 125 ppm) of 70% and an inhibition of growth at 250 ppm (Zymoseptoria tritici; malonomicin 250 ppm) of 70%. For the same compound, the inhibition of growth at 500 ppm (Zymoseptoria tritici; malonomicin 500 ppm) was 90%, the inhibition of growth at 1000 ppm (Zymoseptoria tritici; malonomicin 1000 ppm) was 100% and the “control of fungal growth (% reduction of growth in the test well as compared to untreated check)” value (Cercospora arachidicola; [1]) was 100%. For the same compound, the “control of fungal growth (% reduction of growth in the test well as compared to untreated check)” value (Cercospora arachidicola; [2]) was 90%, the “control of fungal growth (% reduction of growth in the test well as compared to untreated check)” value (Cercospora arachidicola; [3]) was 70% and the “control of fungal growth (% reduction of growth in the test well as compared to untreated check)” value (Cercospora arachidicola; [4]) was 70%. For the same compound, the “control of fungal growth (% reduction of growth in the test well as compared to untreated check)” value (Cercospora arachidicola; [5]) was 50%, the “control of fungal growth (% reduction of growth in the test well as compared to untreated check)” value (Cercospora arachidicola; [6]) was 50% and the “control of fungal growth (% reduction of growth in the test well as compared to untreated check)” value (Cercospora arachidicola; [7]) was 20%. For the same compound, the “control of fungal growth (% reduction of growth in the test well as compared to untreated check)” value (Cercospora arachidicola; [8]) was 20%, the “control of fungal growth (% reduction of growth in the test well as compared to untreated check)” value (Cercospora arachidicola; [9]) was 0% and the “control of fungal growth (% reduction of growth in the test well as compared to untreated check)” value (Cercospora arachidicola; [10]) was 0%.

For CC(C)CCCCCCCCCCC(=O)NC1C(=O)NC(CC(=O)O)C(=O)NC(C(O)CC(N)=O)C(=O)NC(CO)C(=O)N(C)C(CC(N)=O)C(=O)N(C)C(Cc2ccccc2)C(=O)NC(CCC(N)=O)C(=O)NC(CCC(=O)O)C(=O)OC1C (centres unmarked) [Formula I(a)] ({Tridecanoyl(12-Me)}-TD[X1]S[NMeN][NMeF]QE; ester 1-C; configuration not given here), the inhibition of growth at 1.56 µg/mL (Fusarium culmorum; I(a) 1.56 ppm) was 0%, the inhibition of growth at 3.125 µg/mL (Fusarium culmorum; I(a) 3.125 ppm) was 0% and the inhibition of growth at 6.25 µg/mL (Fusarium culmorum; I(a) 6.25 ppm) was 0%. For the same compound, the inhibition of growth at 12.5 µg/mL (Fusarium culmorum; I(a) 12.5 ppm) was 0%, the inhibition of growth at 25 µg/mL (Fusarium culmorum; I(a) 25 ppm) was 0% and the inhibition of growth at 50 µg/mL (Fusarium culmorum; I(a) 50 ppm) was 0%. The inhibition of growth at 100 µg/mL (Fusarium culmorum; I(a) 100 ppm) was 0%, the inhibition of growth at 1.56 µg/mL (Zymoseptoria tritici; I(a) 1.56 ppm) was 0% and the inhibition of growth at 3.125 µg/mL (Zymoseptoria tritici; I(a) 3.125 ppm) was 20%. The inhibition of growth at 6.25 µg/mL (Zymoseptoria tritici; I(a) 6.25 ppm) was 50%, the inhibition of growth at 12.5 µg/mL (Zymoseptoria tritici; I(a) 12.5 ppm) was 70% and the inhibition of growth at 25 µg/mL (Zymoseptoria tritici; I(a) 25 ppm) was 70%. For the same compound, the inhibition of growth at 50 µg/mL (Zymoseptoria tritici; I(a) 50 ppm) was 90% and the inhibition of growth at 100 µg/mL (Zymoseptoria tritici; I(a) 100 ppm) was 90%.
